Results published in the supplement of paper PMC10307832.

How the values were obtained:
Assay in all cases: relative viability (nuclei count vs DMSO), 5 days (fraction); higher = more cells survive
ABC-1 = system: ABC-1
How it was run: (§1)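 Lung cancer cell lines were seeded in 1536-well plates and dosed by pin tool the next day, with either a single drug or a fixed anchor-drug dose combined with five library-drug doses (not always all listed) spaced in √10 steps. Five days later, one step fixed the cells and stained their nuclei (final 0.05% Triton X-100, 1% formaldehyde, 1 ug/ml Hoechst), and nuclei were counted on 4× images. Relative viability is the nuclei count in treated wells divided by the count in vehicle wells, and each value is the median of duplicate plates.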

BEN = system: BEN
How it was run: as §1

CAL-12T = system: CAL-12T
How it was run: as §1

EKVX = system: EKVX
How it was run: as §1

EMC-BAC-2 = system: EMC-BAC-2
How it was run: as §1

H3255 = system: H3255
How it was run: as §1

LC-2-ad = system: LC-2-ad
How it was run: as §1

LU99A = system: LU99A
How it was run: as §1

NCI-H1355 = system: NCI-H1355
How it was run: as §1

NCI-H1650 = system: NCI-H1650
How it was run: as §1

NCI-H1734 = system: NCI-H1734
How it was run: as §1

NCI-H1792 = system: NCI-H1792
How it was run: as §1

NCI-H1993 = system: NCI-H1993
How it was run: as §1

NCI-H2009 = system: NCI-H2009
How it was run: as §1

NCI-H2085 = system: NCI-H2085
How it was run: as §1

NCI-H2087 = system: NCI-H2087
How it was run: as §1

NCI-H2342 = system: NCI-H2342
How it was run: as §1

NCI-H520 = system: NCI-H520
How it was run: as §1

NCI-H522 = system: NCI-H522
How it was run: as §1

NCI-H661 = system: NCI-H661
How it was run: as §1

NCI-H838 = system: NCI-H838
How it was run: as §1

SK-LU-1 = system: SK-LU-1
How it was run: as §1

SK-MES-1 = system: SK-MES-1
How it was run: as §1

SW 1573 = system: SW 1573
How it was run: as §1

UMC-11 = system: UMC-11
How it was run: as §1

Q: What does the source list for Nc1cccc2c1CN(C1CCC(=O)NC1=O)C2=O (centres undefined) [Lenalidomide] + O=C(c1cc(Cc2n[nH]c(=O)c3ccccc23)ccc1F)N1CCN(C(=O)C2CC2)CC1 [Olaparib] (partner 8 µM)?
A: relative viability (ABC-1; first compound 0.253 µM): 0.654; relative viability (ABC-1; first compound 0.8 µM): 0.764; relative viability (ABC-1; first compound 2.53 µM): 0.861; relative viability (ABC-1; first compound 8 µM): 1.03; relative viability (BEN; first compound 0.253 µM): 1.07; relative viability (BEN; first compound 0.8 µM): 1.2; relative viability (BEN; first compound 2.53 µM): 1.08; relative viability (BEN; first compound 8 µM): 1.08; relative viability (CAL-12T; first compound 0.253 µM): 0.807; relative viability (CAL-12T; first compound 0.8 µM): 0.729; relative viability (CAL-12T; first compound 2.53 µM): 0.757; relative viability (CAL-12T; first compound 8 µM): 0.941; relative viability (EKVX; first compound 0.253 µM): 0.776; relative viability (EKVX; first compound 0.8 µM): 0.754; relative viability (EKVX; first compound 2.53 µM): 0.87; relative viability (EKVX; first compound 8 µM): 0.786; relative viability (EMC-BAC-2; first compound 0.253 µM): 0.479; relative viability (EMC-BAC-2; first compound 0.8 µM): 0.395; relative viability (EMC-BAC-2; first compound 2.53 µM): 0.52; relative viability (EMC-BAC-2; first compound 8 µM): 0.461; relative viability (H3255; first compound 0.253 µM): 0.556; relative viability (H3255; first compound 0.8 µM): 0.579; relative viability (H3255; first compound 2.53 µM): 0.602; relative viability (H3255; first compound 8 µM): 0.614; relative viability (LC-2-ad; first compound 0.253 µM): 0.359; relative viability (LC-2-ad; first compound 0.8 µM): 0.716; relative viability (LC-2-ad; first compound 2.53 µM): 0.777; relative viability (LC-2-ad; first compound 8 µM): 0.782; relative viability (LU99A; first compound 0.253 µM): 0.261; relative viability (LU99A; first compound 0.8 µM): 0.283; relative viability (LU99A; first compound 2.53 µM): 0.243; relative viability (LU99A; first compound 8 µM): 0.246; relative viability (NCI-H1355; first compound 0.253 µM): 0.756; relative viability (NCI-H1355; first compound 0.8 µM): 0.5; relative viability (NCI-H1355; first compound 2.53 µM): 0.857; relative viability (NCI-H1355; first compound 8 µM): 0.709; relative viability (NCI-H1650; first compound 0.253 µM): 0.681; relative viability (NCI-H1650; first compound 0.8 µM): 0.712; relative viability (NCI-H1650; first compound 2.53 µM): 0.945; relative viability (NCI-H1650; first compound 8 µM): 0.933; relative viability (NCI-H1734; first compound 0.253 µM): 0.305; relative viability (NCI-H1734; first compound 0.8 µM): 0.582; relative viability (NCI-H1734; first compound 2.53 µM): 0.651; relative viability (NCI-H1734; first compound 8 µM): 0.576; relative viability (NCI-H1792; first compound 0.253 µM): 0.609; relative viability (NCI-H1792; first compound 0.8 µM): 0.378; relative viability (NCI-H1792; first compound 2.53 µM): 0.588; relative viability (NCI-H1792; first compound 8 µM): 0.485; relative viability (NCI-H1993; first compound 0.253 µM): 0.897; relative viability (NCI-H1993; first compound 0.8 µM): 1.42; relative viability (NCI-H1993; first compound 2.53 µM): 1.09; relative viability (NCI-H1993; first compound 8 µM): 0.889; relative viability (NCI-H2009; first compound 0.253 µM): 0.623; relative viability (NCI-H2009; first compound 0.8 µM): 0.654; relative viability (NCI-H2009; first compound 2.53 µM): 0.827; relative viability (NCI-H2009; first compound 8 µM): 0.693; relative viability (NCI-H2085; first compound 0.253 µM): 0.793; relative viability (NCI-H2085; first compound 0.8 µM): 0.796; relative viability (NCI-H2085; first compound 2.53 µM): 0.841; relative viability (NCI-H2085; first compound 8 µM): 0.752; relative viability (NCI-H2087; first compound 0.253 µM): 0.562; relative viability (NCI-H2087; first compound 2.53 µM): 0.689; relative viability (NCI-H2087; first compound 8 µM): 0.685; relative viability (NCI-H2342; first compound 0.253 µM): 0.464; relative viability (NCI-H2342; first compound 0.8 µM): 0.415; relative viability (NCI-H2342; first compound 2.53 µM): 0.437; relative viability (NCI-H2342; first compound 8 µM): 0.399; relative viability (NCI-H520; first compound 0.253 µM): 0.368; relative viability (NCI-H520; first compound 0.8 µM): 0.359; relative viability (NCI-H520; first compound 2.53 µM): 0.375; relative viability (NCI-H520; first compound 8 µM): 0.35; relative viability (NCI-H522; first compound 0.253 µM): 0.676; relative viability (NCI-H522; first compound 0.8 µM): 0.672; relative viability (NCI-H522; first compound 2.53 µM): 0.58; relative viability (NCI-H522; first compound 8 µM): 0.608; relative viability (NCI-H661; first compound 0.253 µM): 0.725; relative viability (NCI-H661; first compound 0.8 µM): 0.756; relative viability (NCI-H661; first compound 2.53 µM): 0.735; relative viability (NCI-H661; first compound 8 µM): 0.704; relative viability (NCI-H838; first compound 0.253 µM): 0.75; relative viability (NCI-H838; first compound 0.8 µM): 0.774; relative viability (NCI-H838; first compound 2.53 µM): 0.781; relative viability (NCI-H838; first compound 8 µM): 0.79; relative viability (SK-LU-1; first compound 0.253 µM): 0.409; relative viability (SK-LU-1; first compound 0.8 µM): 0.542; relative viability (SK-LU-1; first compound 2.53 µM): 0.615; relative viability (SK-LU-1; first compound 8 µM): 0.392; relative viability (SK-MES-1; first compound 0.253 µM): 0.717; relative viability (SK-MES-1; first compound 0.8 µM): 0.691; relative viability (SK-MES-1; first compound 2.53 µM): 0.715; relative viability (SK-MES-1; first compound 8 µM): 0.806; relative viability (SW 1573; first compound 0.253 µM): 0.492; relative viability (SW 1573; first compound 0.8 µM): 0.545; relative viability (SW 1573; first compound 2.53 µM): 0.468; relative viability (SW 1573; first compound 8 µM): 0.606; relative viability (UMC-11; first compound 0.253 µM): 0.398; relative viability (UMC-11; first compound 0.8 µM): 0.695; relative viability (UMC-11; first compound 2.53 µM): 0.416; relative viability (UMC-11; first compound 8 µM): 0.405
